Measured values: US20240132431A1, “METHOD FOR ALKYLATING ACIDIC FUNCTIONAL GROUP” (Chugai Seiyaku Kabushiki Kaisha, priority 2021, published 2024)

Biological target: T1, Bcl-2 protein (Recombinant Human Bcl-2 Protein) (Homo sapiens, UniProt P10415)
T1 construct: purchased Novus NBP2-34889
Assay: Binding evaluation of mixture library compounds to Bcl-2 using AS-MS (affinity selection mass spectrometry)
Details: for ASMS ratio (%) n = 1 / ASMS ratio (%) n = 2: ASMS Ratio(%)=(A−C)/B×100; for ASMS ratio (%) n = 1: replicate n = 1; for ASMS ratio (%) n = 2: replicate n = 2
Summary of the method: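 Pooled library of ~1200 compounds ([…] each, final) incubated with recombinant human Bcl-2 (20 μM final) in Tris-HCl pH 7.4, NaCl, Tween-20, DTT buffer, dark, 23° C., 1 h. Bound fraction recovered by SEC spin column, organic extraction, reversed-phase LC/MS. ASMS Ratio (%) = (A−C)/B×100 versus protein-free standard and SEC blank.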

[1] = AS-MS on the mixture of 1200 library compounds
[2] = AS-MS, mixture of 1200 compounds, Bcl-2

T1 sequence (P10415 whole entry): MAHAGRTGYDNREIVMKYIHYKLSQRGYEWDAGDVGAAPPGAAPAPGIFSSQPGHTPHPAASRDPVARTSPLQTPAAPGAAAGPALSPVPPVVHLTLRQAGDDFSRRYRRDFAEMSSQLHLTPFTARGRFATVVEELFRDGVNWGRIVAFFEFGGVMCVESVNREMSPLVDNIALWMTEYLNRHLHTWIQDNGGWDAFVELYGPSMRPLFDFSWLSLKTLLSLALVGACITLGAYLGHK

CCOc1cncc(-c2ccccc2CN2CCN(c3ccc(C(=O)N(CC)CC)cc3)CC2)c1 [B4J046-01]
ASMS ratio (%) n = 1 [1]: 0.0%
ASMS ratio (%) n = 2 [1]: 0.0%

6-[4-[3-[2-(3-Ethoxyphenyl)phenyl]propanoyl]piperazin-1-yl]-N-propylpyridazine-3-carboxamide [B1M067-01]
ASMS ratio (%) n = 1 [2]: −1.6%
ASMS ratio (%) n = 2 [2]: −87.4%

CCOc1cccc(C#Cc2cncc(C(=O)N3CCN(c4ccc(C(=O)NS(=O)(=O)c5ccc(NCCSc6ccccc6)c([N+](=O)[O-])c5)cc4)CC3)c2)c1 [B2Q031-01, 4-[4-[5-[2-(3-Ethoxyphenyl)ethynyl]pyridine-3-carbonyl]piperazin-1-yl]-N-[3-nitro-4-(2-phenylsulfanylethylamino)phenyl]sulfonylbenzamide]
ASMS ratio (%) n = 1 (AS-MS, mixture library, Bcl-2): 6.6%
ASMS ratio (%) n = 2 (AS-MS, mixture library, Bcl-2): −4.1%

CCOc1cccc(C#Cc2ccccc2CN2CCN(c3ccc(C(=O)NCC(F)(F)F)nn3)CC2)c1 [B1K095-01, 6-[4-[[2-[2-(3-Ethoxyphenyl)ethynyl]phenyl]methyl]piperazin-1-yl]-N-(2,2,2-trifluoroethyl)pyridazine-3-carboxamide]
ASMS ratio (%) n = 1 [2]: 3.5%
ASMS ratio (%) n = 2 [2]: −0.6%

CCOc1cccc(-c2cnn(-c3cc(C(=O)N4CCN(c5ccc(C(=O)NS(=O)(=O)CCC(F)(F)F)nn5)CC4)cc(C(F)(F)F)c3)c2)c1 [B2N021-01, 6-[4-[3-[4-(3-Ethoxyphenyl)pyrazol-1-yl]-5-(trifluoromethyl)benzoyl]piperazin-1-yl]-N-(3,3,3-trifluoropropylsulfonyl)pyridazine-3-carboxamide]
ASMS ratio (%) (n = 2): 0.0%

CCOc1cncc(-c2cc(C(=O)N3CCN(c4ccc(C(=O)NS(C)(=O)=O)nn4)CC3)cc(C(F)(F)F)c2)c1 [B2I018-01, 6-[4-[3-(5-Ethoxypyridin-3-yl)-5-(trifluoromethyl)benzoyl]piperazin-1-yl]-N-methylsulfonylpyridazine-3-carboxamide]
ASMS ratio (%) n = 1 (AS-MS, mixture library, Bcl-2): 0.0%
ASMS ratio (%) n = 2 (AS-MS, mixture library, Bcl-2): 0.0%

CCOc1cccc(-c2ccc(CN3CCN(c4ccc(C(=O)NS(=O)(=O)CC56CC7CC(CC(C7)C5)C6)nn4)CC3)c(CC)c2)c1 [B2A075-01, N-(1-Adamantylmethylsulfonyl)-6-[4-[[4-(3-ethoxyphenyl)-2-ethylphenyl]methyl]piperazin-1-yl]pyridazine-3-carboxamide]
ASMS ratio (%) n = 1 (AS-MS, mixture library, Bcl-2): 4.6%
ASMS ratio (%) n = 2 (AS-MS, mixture library, Bcl-2): 4.4%

CCOc1cccc(-c2cc(CN3CCN(c4ccc(C(=O)NCC56CC7CC(CC(C7)C5)C6)nn4)CC3)cc(OC(C)C)c2)c1 [B1A083-01, N-(1-Adamantylmethyl)-6-[4-[[3-(3-ethoxyphenyl)-5-propan-2-yloxyphenyl]methyl]piperazin-1-yl]pyridazine-3-carboxamide]
ASMS ratio (%) n = 1 [2]: −0.3%
ASMS ratio (%) n = 2 [2]: 0.5%

CCOc1cncc(-c2ccc(CN3CCN(c4ccc(C(=O)NCC(F)(F)F)nn4)CC3)c3ccccc23)c1 [B1K092-01, 6-[4-[[4-(5-Ethoxypyridin-3-yl)naphthalen-1-yl]methyl]piperazin-1-yl]-N-(2,2,2-trifluoroethyl)pyridazine-3-carboxamide]
ASMS ratio (%) n = 1 [2]: 4.1%
ASMS ratio (%) n = 2 [2]: −0.7%

CCOc1cccc(-c2cc(CN3CCN(c4ccc(C(=O)N(CC)CC)cc4)CC3)cc(OC(F)(F)F)c2)c1 [B4J063-01, 4-[4-[[3-(3-Ethoxyphenyl)-5-(trifluoromethoxy)phenyl]methyl]piperazin-1-yl]-N,N-diethylbenzamide]
ASMS ratio (%) n = 1 (AS-MS, mixture library, Bcl-2): 4.5%
ASMS ratio (%) n = 2 (AS-MS, mixture library, Bcl-2): 0.1%

CCOc1cncc(-c2ccc(CN3CCN(c4ccc(C(=O)NS(=O)(=O)CC56CC7CC(CC(C7)C5)C6)nn4)CC3)cc2C)c1 [B2A074-01, N-(1-Adamantylmethylsulfonyl)-6-[4-[[4-(5-ethoxypyridin-3-yl)-3-methylphenyl]methyl]piperazin-1-yl]pyridazine-3-carboxamide]
ASMS ratio (%) n = 1 (AS-MS, mixture library, Bcl-2): 9.2%
ASMS ratio (%) n = 2 (AS-MS, mixture library, Bcl-2): 1.9%

CCOc1cncc(-c2cc(C(=O)N3CCN(c4ccc(C(=O)NS(=O)(=O)CCC(F)(F)F)cc4)CC3)cc(C(C)(C)C)c2)c1 [B2N038-01, 4-[4-[3-tert-Butyl-5-(5-ethoxypyridin-3-yl)benzoyl]piperazin-1-yl]-N-(3,3,3-trifluoropropylsulfonyl)benzamide]
ASMS ratio (%) (n = 1): 0.0%
ASMS ratio (%) (n = 2): 0.0%

CCOc1cccc(-c2cc(C(=O)N3CCN(c4ccc(C(=O)NS(=O)(=O)c5ccc(NCCSc6ccccc6)c(C(F)(F)F)c5)cc4)CC3)cc(C(C)(C)C)c2)c1 [B2R037-01, 4-[4-[3-tert-Butyl-5-(3-ethoxyphenyl)benzoyl]piperazin-1-yl]-N-[4-(2-phenylsulfanylethylamino)-3-(trifluoromethyl)phenyl]sulfonylbenzamide]
ASMS ratio (%) (n = 1): 6.3%
ASMS ratio (%) (n = 2): −7.0%

CCOc1cncc(-c2ccc(C(=O)N3CCN(c4ccc(C(=O)NCC56CC7CC(CC(C7)C5)C6)cc4)CC3)c3ccccc23)c1 [B1A036-01, N-(1-Adamantylmethyl)-4-[4-[4-(5-ethoxypyridin-3-yl)naphthalene-1-carbonyl]piperazin-1-yl]benzamide]
ASMS ratio (%) n = 1 [2]: 0.4%
ASMS ratio (%) n = 2 [2]: 3.1%

CCOc1cccc(-c2cc(CN3CCN(c4ccc(C(=O)NS(=O)(=O)c5ccc(NCCSc6ccccc6)c(C(F)(F)F)c5)nn4)CC3)cc(OCC)c2)c1 [B2R081-01, 6-[4-[[3-Ethoxy-5-(3-ethoxyphenyl)phenyl]methyl]piperazin-1-yl]-N-[4-(2-phenylsulfanylethylamino)-3-(trifluoromethyl)phenyl]sulfonylpyridazine-3-carboxamide]
ASMS ratio (%) (n = 1): 21.1%
ASMS ratio (%) (n = 2): −8.8%

CCOc1cccc(-c2ccccc2CN2CCN(c3ccc(C(=O)NS(=O)(=O)c4ccc(NCCSc5ccccc5)c([N+](=O)[O-])c4)nn3)CC2)c1 [B2Q071-01, 6-[4-[[2-(3-Ethoxyphenyl)phenyl]methyl]piperazin-1-yl]-N-[3-nitro-4-(2-phenylsulfanylethylamino)phenyl]sulfonylpyridazine-3-carboxamide]
ASMS ratio (%) n = 1 (AS-MS, mixture library, Bcl-2): 25.0%
ASMS ratio (%) n = 2 (AS-MS, mixture library, Bcl-2): 11.2%

CCOc1cccc(-c2ccccc2CCC(=O)N2CCN(c3ccc(C(=O)NS(=O)(=O)C(C)(C)C)nn3)CC2)c1 [B2L011-01, N-tert-Butylsulfonyl-6-[4-[3-[2-(3-ethoxyphenyl)phenyl]propanoyl]piperazin-1-yl]pyridazine-3-carboxamide]
ASMS ratio (%) (n = 1): 0.0%
ASMS ratio (%) (n = 2): 0.0%

CCOc1cncc(-c2ccccc2CN2CCN(c3ccc(C(=O)NCC45CC6CC(CC(C6)C4)C5)cc3)CC2)c1 [B1A046-01, N-(1-Adamantylmethyl)-4-[4-[[2-(5-ethoxypyridin-3-yl)phenyl]methyl]piperazin-1-yl]benzamide]
ASMS ratio (%) n = 1 [2]: 0.0%
ASMS ratio (%) n = 2 [2]: 0.0%

CCOc1cncc(-c2ccc(CN3CCN(c4ccc(C(=O)NCC56CC7CC(CC(C7)C5)C6)cc4)CC3)c3ccccc23)c1 [B1A066-01, N-(1-Adamantylmethyl)-4-[4-[[4-(5-ethoxypyridin-3-yl)naphthalen-1-yl]methyl]piperazin-1-yl]benzamide]
ASMS ratio (%) n = 1 [2]: 8.2%
ASMS ratio (%) n = 2 [2]: 7.7%

CCOc1cccc(C#Cc2ccccc2C(=O)N2CCN(c3ccc(C(=O)NS(=O)(=O)c4ccc(NCCSc5ccccc5)c(C(F)(F)F)c4)cc3)CC2)c1 [B2R029-01, 4-[4-[2-[2-(3-Ethoxyphenyl)ethynyl]benzoyl]piperazin-1-yl]-N-[4-(2-phenylsulfanylethylamino)-3-(trifluoromethyl)phenyl]sulfonylbenzamide]
ASMS ratio (%) (n = 2): 0.0%

CCOc1cccc(-c2ccc(CN3CCN(c4ccc(C(=O)NCC56CC7CC(CC(C7)C5)C6)nn4)CC3)c(OC)c2)c1 [B1A079-01, N-(1-Adamantylmethyl)-6-[4-[[4-(3-ethoxyphenyl)-2-methoxyphenyl]methyl]piperazin-1-yl]pyridazine-3-carboxamide]
ASMS ratio (%) n = 1 [2]: 3.9%
ASMS ratio (%) n = 2 [2]: −3.9%

CCOc1cncc(-c2csc(C(=O)N3CCN(c4ccc(C(=O)NS(=O)(=O)CC56CC7CC(CC(C7)C5)C6)nn4)CC3)c2)c1 [B2A002-01, N-(1-Adamantylmethylsulfonyl)-6-[4-[4-(5-ethoxypyridin-3-yl)thiophene-2-carbonyl]piperazin-1-yl]pyridazine-3-carboxamide]
ASMS ratio (%) n = 1 (AS-MS, mixture library, Bcl-2): 0.0%
ASMS ratio (%) n = 2 (AS-MS, mixture library, Bcl-2): 0.0%

CCOc1cccc(-c2ccc(CN3CCN(c4ccc(C(=O)N(CC)CC)nn4)CC3)c(OC)c2)c1 [B4J079-01, 6-[4-[[4-(3-Ethoxyphenyl)-2-methoxyphenyl]methyl]piperazin-1-yl]-N,N-diethylpyridazine-3-carboxamide]
ASMS ratio (%) n = 1 (AS-MS, mixture library, Bcl-2): 0.0%
ASMS ratio (%) n = 2 (AS-MS, mixture library, Bcl-2): 0.0%

CCOc1cncc(-c2ccc(CN3CCN(c4ccc(C(=O)N(CC)CC)cc4)CC3)c(OC)c2)c1 [B4J054-01, 4-[4-[[4-(5-Ethoxypyridin-3-yl)-2-methoxyphenyl]methyl]piperazin-1-yl]-N,N-diethylbenzamide]
ASMS ratio (%) n = 1 [1]: 0.0%
ASMS ratio (%) n = 2 [1]: −1.1%
